Each structure is given as a SMILES string. Active and inactive are the calls of the source. Where only a bound is given, the exact number is not on record here.

Experimental findings from ChEMBL document CHEMBL1201862, “PubChem BioAssay data set” (2004) are described below.

For data set [1], the target named is T1, Short transient receptor potential channel 4 (Mus musculus, UniProt Q9QUQ5).
T1 sequence (Q9QUQ5 whole entry): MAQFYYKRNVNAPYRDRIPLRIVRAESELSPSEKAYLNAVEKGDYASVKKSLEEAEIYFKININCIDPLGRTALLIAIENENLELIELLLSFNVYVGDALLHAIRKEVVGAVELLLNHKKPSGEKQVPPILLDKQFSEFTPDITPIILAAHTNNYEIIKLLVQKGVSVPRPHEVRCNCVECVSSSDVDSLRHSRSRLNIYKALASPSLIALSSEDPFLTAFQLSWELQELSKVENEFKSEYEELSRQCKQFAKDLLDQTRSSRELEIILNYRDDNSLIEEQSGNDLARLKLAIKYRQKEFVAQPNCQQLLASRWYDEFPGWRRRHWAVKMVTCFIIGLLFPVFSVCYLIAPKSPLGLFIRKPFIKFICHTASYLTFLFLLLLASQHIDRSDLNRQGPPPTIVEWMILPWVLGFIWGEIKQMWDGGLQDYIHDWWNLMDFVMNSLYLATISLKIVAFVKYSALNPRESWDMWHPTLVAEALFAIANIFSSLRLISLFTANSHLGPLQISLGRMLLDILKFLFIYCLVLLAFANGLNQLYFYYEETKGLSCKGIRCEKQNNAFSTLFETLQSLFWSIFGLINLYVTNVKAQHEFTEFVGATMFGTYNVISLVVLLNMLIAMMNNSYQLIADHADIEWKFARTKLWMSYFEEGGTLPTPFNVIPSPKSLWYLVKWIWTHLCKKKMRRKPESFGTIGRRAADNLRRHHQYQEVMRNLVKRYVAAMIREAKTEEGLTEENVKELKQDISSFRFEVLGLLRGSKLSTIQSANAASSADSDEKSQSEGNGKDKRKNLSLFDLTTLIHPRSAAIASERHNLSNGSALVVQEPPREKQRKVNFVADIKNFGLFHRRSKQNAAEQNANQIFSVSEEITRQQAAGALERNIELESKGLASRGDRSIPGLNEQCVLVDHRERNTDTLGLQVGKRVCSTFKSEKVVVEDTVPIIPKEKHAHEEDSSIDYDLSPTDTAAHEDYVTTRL
Kind of data set: mouse TRPC4 channel activators, dose response, cell-based, HEK293 TRPC4/mu-opioid, Fluo-4 calcium (AID 434937). The format is functional.

The target of data set [2] is T2, Corticotropin-releasing factor receptor 2/Corticotropin-releasing factor-binding protein (Homo sapiens, UniProt P24387+Q13324).
T2 sequence (Q13324 whole entry): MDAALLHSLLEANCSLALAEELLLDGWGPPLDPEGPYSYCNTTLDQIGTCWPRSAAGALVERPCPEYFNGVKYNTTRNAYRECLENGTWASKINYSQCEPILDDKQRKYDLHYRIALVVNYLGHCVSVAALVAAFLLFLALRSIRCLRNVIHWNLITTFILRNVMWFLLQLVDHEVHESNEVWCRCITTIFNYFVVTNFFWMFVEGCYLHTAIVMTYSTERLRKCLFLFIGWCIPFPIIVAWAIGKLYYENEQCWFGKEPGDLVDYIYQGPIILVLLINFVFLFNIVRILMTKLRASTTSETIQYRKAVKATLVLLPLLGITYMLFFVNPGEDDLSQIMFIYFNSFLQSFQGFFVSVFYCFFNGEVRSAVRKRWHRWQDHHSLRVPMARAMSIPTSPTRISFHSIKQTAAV
T2 sequence (P24387 whole entry): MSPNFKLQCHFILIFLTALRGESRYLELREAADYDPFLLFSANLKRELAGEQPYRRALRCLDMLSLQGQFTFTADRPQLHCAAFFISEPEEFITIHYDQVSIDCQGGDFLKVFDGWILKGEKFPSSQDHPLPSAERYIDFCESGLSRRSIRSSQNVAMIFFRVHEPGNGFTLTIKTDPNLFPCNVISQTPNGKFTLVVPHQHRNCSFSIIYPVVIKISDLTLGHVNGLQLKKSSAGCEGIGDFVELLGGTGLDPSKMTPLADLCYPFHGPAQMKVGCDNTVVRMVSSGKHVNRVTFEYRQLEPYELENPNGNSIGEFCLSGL
Kind of data set: Dose Response confirmation of uHTS hits for small molecule antagonists of the CRF-binding protein and CRF-R2 receptor complex. The format is functional. The note with it: read-out: IC50_Mean.

Data set [3] concerns the target T2, Corticotropin-releasing factor receptor 2/Corticotropin-releasing factor-binding protein. Kind of data set: activators of CRF receptor 2 with binding protein – uHTS hits, confirmation (AID 602473). The note with it: read-out: EC50_Mean. The format is functional.
The subject of data set [4] is Vero. Kind of data set: cells. It counts as functional. The following applies: Chlorocebus sabaeus.
The target in data set [5] is Luciferin 4-monooxygenase (Photinus pyralis, UniProt P08659). Kind of data set: firefly luciferase enzyme inhibitors, dose response, biochemical, luminescence (AID 1891).
Data set [6] can be described thus: Luminescence Cell-Based Dose Confirmation HTS to Identify Inhibitors of Platelet Dense Granule Release. [Related pubchem assays: 1663 (Primary HTS), 1678 (Summary of Project)]. The format is functional.
Data set [7] deals with Cytochrome P450 2C19 (Homo sapiens, UniProt P33261). Kind of data set: Cytochrome panel assay with activity outcomes. Panel member name: p450-cyp2c19 Compounds with AC50 equal or less than 10 uM are considered active. The format is functional. The following applies: read-out: AC50.
The target of data set [8] is Cytochrome P450 3A4 (Homo sapiens, UniProt P08684).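 Further: CYP3A4 tested as one member of a cytochrome P450 panel screen.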
The target of data set [9] is Cytochrome P450 2C9 (Homo sapiens, UniProt P11712).
The target in data set [10] is Cytochrome P450 2D6 (Homo sapiens, UniProt P10635).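 Further: CYP2D6 member of a cytochrome P450 panel assay.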
For data set [11], the target named is T1, Short transient receptor potential channel 4. Kind of data set: mouse TRPC4 channel inhibitors, dose response, cell-based, HEK293 TRPC4/mu-opioid, Fluo-4 calcium (AID 434942).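 Further: potency of inhibitors blocking the TRPC4 calcium response.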 The format is functional.
A short description of data set [12]: Luminescence Cell-Based Dose Confirmation HTS to Identify Activators of 5'UTR Stem-Loop Driven Alpha-Synuclein mRNA Translation in H4 Neuroglioblastoma Cells. [Related pubchem assays: 1829 (Project Summary), 1814 (Primary HTS)]. The format is functional.
Data set [13] in a line: Luminescence Cell-Based Dose Response HTS to Identify Activators of Luciferase Translation or Activity in H4 […] Cells. [Related pubchem assays: 1829 (Project Summary), 1814 (Primary HTS)]. It counts as functional.
For data set [14], the system named is H4. Kind of data set: Luminescence Cell-Based Dose Response HTS to Identify Activators of 5'UTR Stem-Loop Driven Prion Protein mRNA Translation in H4 Neuroglioblastoma Cells. [Related pubchem assays: 1829 (Project Summary), 1814 (Primary HTS)]. The note with it: Homo sapiens. The format is functional.
Data set [15] deals with Melanocortin receptor 4 (Homo sapiens, UniProt P32245). Kind of data set: MC4R antagonist potency on cAMP, dose response, cell-based, TR-FRET, biased antagonists (AID 602298).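 Further: antagonist potency against agonist-stimulated cAMP production.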 It counts as functional.
Data set [16] is described as follows: nonselective inhibitors of cellular cAMP signaling, dose response, counter-screen for MC4R biased antagonist project, cell-based, TR-FRET cAMP detection (AID 602305).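 Further: U2OS cells stimulated with forskolin near its EC80 as the cAMP inducer; potency is for inhibition of forskolin-stimulated cAMP signaling.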 The format is functional.

Sequence of Melanocortin receptor 4 (P32245 whole entry): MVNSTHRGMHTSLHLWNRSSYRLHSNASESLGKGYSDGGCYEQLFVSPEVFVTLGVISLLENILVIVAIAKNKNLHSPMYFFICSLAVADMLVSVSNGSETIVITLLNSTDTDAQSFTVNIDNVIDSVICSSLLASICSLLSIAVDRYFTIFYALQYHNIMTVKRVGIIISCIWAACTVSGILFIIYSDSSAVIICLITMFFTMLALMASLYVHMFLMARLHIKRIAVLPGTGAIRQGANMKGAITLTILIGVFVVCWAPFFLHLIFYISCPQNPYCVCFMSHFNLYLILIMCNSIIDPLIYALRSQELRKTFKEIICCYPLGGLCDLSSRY
Sequence of Cytochrome P450 2C9 (P11712 whole entry): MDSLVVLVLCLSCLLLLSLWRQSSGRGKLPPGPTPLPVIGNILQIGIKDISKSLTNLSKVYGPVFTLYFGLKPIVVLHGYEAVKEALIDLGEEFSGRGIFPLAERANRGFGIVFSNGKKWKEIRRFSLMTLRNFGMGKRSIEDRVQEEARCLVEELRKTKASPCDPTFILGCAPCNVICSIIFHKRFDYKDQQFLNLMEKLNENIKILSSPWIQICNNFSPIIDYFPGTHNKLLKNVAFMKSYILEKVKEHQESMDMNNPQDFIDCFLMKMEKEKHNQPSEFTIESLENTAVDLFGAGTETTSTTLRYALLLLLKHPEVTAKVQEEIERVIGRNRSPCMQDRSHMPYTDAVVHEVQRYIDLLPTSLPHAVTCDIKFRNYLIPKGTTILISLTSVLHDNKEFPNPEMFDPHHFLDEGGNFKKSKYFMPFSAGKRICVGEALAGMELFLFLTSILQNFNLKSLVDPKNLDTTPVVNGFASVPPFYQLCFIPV
Sequence of Cytochrome P450 3A4 (P08684 whole entry): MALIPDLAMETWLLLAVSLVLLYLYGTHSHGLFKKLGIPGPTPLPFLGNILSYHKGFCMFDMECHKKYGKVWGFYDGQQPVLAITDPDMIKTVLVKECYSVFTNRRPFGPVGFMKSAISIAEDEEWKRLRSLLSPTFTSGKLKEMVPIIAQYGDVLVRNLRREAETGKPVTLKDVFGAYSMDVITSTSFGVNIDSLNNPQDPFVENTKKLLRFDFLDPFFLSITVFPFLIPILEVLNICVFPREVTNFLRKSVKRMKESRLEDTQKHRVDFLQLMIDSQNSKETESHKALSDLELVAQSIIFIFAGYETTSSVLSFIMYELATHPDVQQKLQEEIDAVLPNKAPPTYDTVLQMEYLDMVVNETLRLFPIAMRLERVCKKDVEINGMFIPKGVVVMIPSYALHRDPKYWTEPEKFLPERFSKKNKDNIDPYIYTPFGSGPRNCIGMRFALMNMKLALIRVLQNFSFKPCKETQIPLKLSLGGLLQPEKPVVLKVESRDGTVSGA
Sequence of Cytochrome P450 2D6 (P10635 whole entry): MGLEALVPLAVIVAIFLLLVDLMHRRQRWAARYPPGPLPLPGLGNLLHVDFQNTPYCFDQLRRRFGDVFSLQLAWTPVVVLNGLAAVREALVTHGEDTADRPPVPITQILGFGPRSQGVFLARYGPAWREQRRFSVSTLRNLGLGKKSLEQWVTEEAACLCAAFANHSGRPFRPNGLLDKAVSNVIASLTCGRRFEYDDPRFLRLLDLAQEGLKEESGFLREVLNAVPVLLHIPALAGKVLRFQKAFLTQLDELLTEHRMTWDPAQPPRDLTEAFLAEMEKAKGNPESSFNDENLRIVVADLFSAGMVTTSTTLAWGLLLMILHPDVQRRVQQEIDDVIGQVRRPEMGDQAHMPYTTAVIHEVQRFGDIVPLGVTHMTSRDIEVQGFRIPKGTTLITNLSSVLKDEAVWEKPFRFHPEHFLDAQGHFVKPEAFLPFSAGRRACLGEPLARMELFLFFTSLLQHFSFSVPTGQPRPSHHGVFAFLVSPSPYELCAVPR
Sequence of Luciferin 4-monooxygenase (P08659 whole entry): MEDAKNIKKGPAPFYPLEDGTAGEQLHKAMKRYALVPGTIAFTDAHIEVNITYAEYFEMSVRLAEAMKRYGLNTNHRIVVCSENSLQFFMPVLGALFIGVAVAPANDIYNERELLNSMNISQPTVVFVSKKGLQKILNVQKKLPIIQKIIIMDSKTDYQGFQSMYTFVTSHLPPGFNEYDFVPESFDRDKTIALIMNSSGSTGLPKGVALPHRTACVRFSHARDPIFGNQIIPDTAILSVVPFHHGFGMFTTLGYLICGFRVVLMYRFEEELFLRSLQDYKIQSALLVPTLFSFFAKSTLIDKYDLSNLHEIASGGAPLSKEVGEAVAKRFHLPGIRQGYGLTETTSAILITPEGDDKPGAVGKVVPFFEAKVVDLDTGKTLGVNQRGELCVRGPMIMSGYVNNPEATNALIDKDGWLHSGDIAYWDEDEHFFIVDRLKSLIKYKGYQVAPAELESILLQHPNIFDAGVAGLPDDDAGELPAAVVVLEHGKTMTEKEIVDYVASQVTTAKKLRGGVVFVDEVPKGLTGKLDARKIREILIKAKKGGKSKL
Sequence of Cytochrome P450 2C19 (P33261 whole entry): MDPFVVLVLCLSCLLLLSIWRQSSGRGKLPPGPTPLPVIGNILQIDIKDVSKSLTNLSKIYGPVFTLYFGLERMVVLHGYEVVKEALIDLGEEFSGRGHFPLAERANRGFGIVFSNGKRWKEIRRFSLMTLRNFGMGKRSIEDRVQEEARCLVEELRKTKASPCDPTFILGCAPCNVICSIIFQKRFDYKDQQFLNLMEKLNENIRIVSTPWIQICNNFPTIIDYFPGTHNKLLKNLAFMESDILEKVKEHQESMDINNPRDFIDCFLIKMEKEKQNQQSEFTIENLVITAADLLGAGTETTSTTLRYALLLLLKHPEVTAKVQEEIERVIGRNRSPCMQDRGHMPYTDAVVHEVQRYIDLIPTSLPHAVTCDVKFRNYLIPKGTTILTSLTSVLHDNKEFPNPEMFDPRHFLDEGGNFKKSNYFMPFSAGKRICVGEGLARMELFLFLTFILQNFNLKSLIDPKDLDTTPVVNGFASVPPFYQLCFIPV

Take `O=C(NCc1ccccc1)C1=C[C@H](c2ccccc2)C[C@H](OCc2ccc(CO)cc2)O1`: the figures for the EC50 in [1] and in data set [3] were 1.06 µM (active) and > 53 µM (inactive), respectively. Moreover, in data set [2], the IC50 is > 47.1 µM (inactive).
`Cc1sc2ncnc(NCC(c3ccco3)N(C)C)c2c1C` (stereo unspecified): the EC50 in data set [1] was 0.841 µM (active).
For the compound `COc1ccc(C2=NOC(COc3ccc4c(C)cc(=O)oc4c3)C2)c(OC)c1` (stereo unspecified), the CC50 in [4] is 7.23 µM (active).
As to `Cn1c(S)nnc1-c1cccc2ccccc12`, the EC50 in data set [1] is 0.841 µM (active).
On to `CC(=O)c1c(C)nn(CC(=O)NC2CCCN(Cc3ccc(CC(C)C)cc3)C2)c1C` (stereo unspecified), for which the EC50 in data set [5] was > 112 µM (not active); in data set [6], > 112 µM (not active); in data set [1] it was 1.19 µM (active).
Consider `N#Cc1nc(-c2ccc(F)cc2)oc1N1CCCC1`, for which the AC50 in data set [7] is 14.1 µM (inconclusive); in [8], 14.1 µM (inconclusive); in data set [9], “inconclusive”.
As for `COc1ccc(C(=O)c2ccccc2)cc1Br`, the AC50 in data set [10] was 22.4 µM (inconclusive); in data set [9] it was “inconclusive”.
Turning to `Brc1cc2c(cc1COc1ccc(-c3nn[nH]n3)cc1)OCO2`, the EC50 in data set [11] is 5.31 µM (active).
In the case of `COc1ccc2cc(C(=O)NCCc3ccccc3)[nH]c2c1`, the EC50 is 43.2 µM (active) in data set [12], 48 µM (active) in [13] and 99.5 µM (active) in [14].
As to `COC(=O)c1c(NC(=O)COC(=O)c2ccc(Cl)cc2[N+](=O)[O-])sc2c1CCCCC2`, the IC50 in data set [15] and in [16] was > 64.6 µM (inactive) throughout.
Consider `COc1ccc2sc(-c3ccc(S(C)(=O)=O)cc3)c(-c3ccc(C(N)=O)cc3)c2c1`, for which the figures for the IC50 in data set [15] and in data set [16] were 11.5 µM (inactive) and 25.1 µM (inactive), respectively.
Turning to `CC(=O)Nc1ccc(S(=O)(=O)Nc2nc3ccc(C)cc3s2)cc1`, the EC50 in data set [11] was 3.76 µM (active).
With `Cc1nnsc1SCC(=O)O`, the AC50 entry in [9] is listed as “inconclusive”.
As for `COc1ccc(C)cc1N(C(=O)c1snc(C(N)=O)c1N)C(C(=O)NC1CCCCC1)c1ccc(C)o1` (stereo unspecified), the EC50 in [11] was 0.211 µM (active).
Turning to `CCN(CC)S(=O)(=O)c1ccc(Cl)c(C(=O)OC2CC(C)OC2=O)c1` (stereo unspecified), the IC50 in [15] and in data set [16] was > 64.6 µM (inactive) each time.
With `CCn1c(-c2ccccc2Cl)nn(CC(=O)Nc2ccccc2OC)c1=S`, the AC50 result in data set [9] is on record as “inconclusive”.
On to `FC(F)(F)c1ccccc1-c1nccc(N2CCNCC2)n1`, for which the AC50 entry in data set [9] was “inconclusive”.
Consider `CC(=O)C1=C(O)C(=O)N(Cc2ccccc2)C1c1ccc([N+](=O)[O-])cc1` (stereo unspecified), for which the EC50 in data set [11] was 1.19 µM (active).
Consider `COc1cc(C(=O)NC(=S)NNC(=O)c2ccc3c(c2)OCO3)cc(OC)c1OC`, for which, in data set [4], the CC50 was 20.2 µM (active).
